Source: patent US20130165426A1, “IMIDAZOPYRIDINE, IMIDAZOPYRIMIDINE AND IMIDAZOPYRAZINE DERIVATIVES AS MELANOCORTIN-4 RECEPTOR MODULATORS” (UNIVERSITÉ DE MONTRÉAL, priority 2010, published 2013)

Molecular target: T1, wild-type human melanocortin 4 receptor (WT-hMC4R) (Homo sapiens, UniProt P32245)
T1 construct: expressed in transfected cells
Test: Cyclic AMP assay (HTRF), antagonist competition against NDP-α-MSH
Type: cell-based
Conditions: HEK293T cells stably expressing WT-hMC4R; inhibition of response to 4 nM NDP-α-MSH; cAMP
Protocol: The general procedures described above were used to prepare the examples described below. Reported HPLC retention time are for reverse-phase HPLC (Agilent, 1200 series) using the conditions reported above (See “General” section). Mass spectra were recorded on a 6210 G1969A LC/MSD TOF spectrometer from Agilent Technologies using the LC conditions reported above (See “General” section). IC50 values were obtained using the cAMP assay described below.
IC50 value is the half maximal concentration of the tested compound to inhibit half of the maximal response of the agonist NDP-α-MSH. It is a measurement of the antagonist compound potency.
Intracellular cyclic 3′-5′ adenosine monophosphate (cAMP) accumulation was measured using a competitive immunoassay based on HTRF (Homogeneous Time-Resolved Fluorescence) technology (cAMP dynamic-2, Cis-Bio).
HEK293T stable cell line expressing double-tagged WT-hMC4R construct were collected and washed in cAMP buffer (1×D-PBS pH 7.4, 0.1% glucose). 40,000 cells/well were then dispensed in 96-well plates in cAMP buffer [1×D-PBS, 1% BSA, 0.1% Glucose, 0.75 mM 3-isobutyl-1-methyl-xanthine (IBMX, Sigma)] and incubated either for antagonist competition assay: 1 hour at 37° C. with various concentrations of compound [0.01 nM-10 μM] followed by 30 min incubation at 37° C. with 4 nM of NDP-α-MSH (Sigma) or for agonist assay: 1 hour at 37° C. with various concentrations of compound [0.01 nM-10 μM]. 10,000 cells were transferred in 384-well plates, lysed and incubated with cAMP labeled with the dye d2 and anti-cAMP M-Antidody labeled with Cryptate following the manufacturer's protocol.
Reading of HTRF signal was performed on Artemis TR-FRET plate reader (Cosmo Bio).
All curve fitting was conducted using non-linear regression analyses from PRISM (version 4.0c, GraphPad Inc.) and the determination of Rmax and EC50 or IC50 parameters were obtained from sigmoidal dose-response phase (variable slope) equation.
A cDNA encoding a wild-type human MC4R with a 3 tandem copies of Hemaglutinine (HA) epitote sequence from UMR cDNA resource center was modified using known techniques in the art (e.g., PCR, cloning) to fused in frame at the C-terminal a venus-Yellow Fluorescent Protein (YFP) cDNA.
The resultant cDNA was then subcloned in eukaryotic expression vector, e.g. pcDNA 3.1(+) (Invitrogen).
The double tagged WT-hMC4R was transfected in HEK293T cells with lipofectamine (Invitrogen) following the manufacturer's instructions and permanently transfected clonal cell lines were selected by resistance to the neomycin analog G418.
HEK293T stable cell line expressing wild-type human melanocortin 4 receptor (WT-hMC4R) containing an N-terminal 3×HA epitope tag and an intracellular C-terminal venus-yellow fluorescent protein (v-YFP) were maintained at 37° C. in humidified air containing 5% CO2 in Dulbecoo's modified Eagle's medium (DMEM) supplemented with 10% fetal bovine serum (FBS), 100 U/ml penicillin/streptomycin (DMEM complete/10% FBS). Cells were generally at 70%-80% confluence on the day of assay.

T1 sequence (P32245 whole entry): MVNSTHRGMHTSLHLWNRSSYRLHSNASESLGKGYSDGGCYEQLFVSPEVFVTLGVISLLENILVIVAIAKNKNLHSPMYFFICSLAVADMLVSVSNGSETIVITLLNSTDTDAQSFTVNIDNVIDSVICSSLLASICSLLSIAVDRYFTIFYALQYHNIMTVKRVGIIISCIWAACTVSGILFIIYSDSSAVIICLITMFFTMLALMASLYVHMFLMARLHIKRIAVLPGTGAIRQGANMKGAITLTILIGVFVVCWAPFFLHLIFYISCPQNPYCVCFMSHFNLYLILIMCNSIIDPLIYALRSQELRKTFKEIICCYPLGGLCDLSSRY

SMILES | IC50
COc1ccc(Nc2nc3ccc(C(=O)N4CC(C)CC(C)C4)nc3n2CCCN2CCCCC2)cc1 (stereo not shown) [Cpd 2, (3,5-dimethylpiperidin-1-yl)(2-((4-methoxyphenyl)amino)-3-(3-(piperidin-1-yl)propyl)-3H-imidazo[4,5-b]pyridin-5-yl)methanone] | 1 to 15 µM
CCCCN(CCCC)C(=O)c1ccc2nc(-c3cccc(C#N)c3)n(CCCN3CCCCC3)c2n1 [Cpd 4, N,N-dibutyl-2-(3-cyanophenyl)-3-(3-(piperidin-1-yl)propyl)-3H-imidazo[4,5-b]pyridine-5-carboxamide] | 1 to 15 µM
CCCCN(CCCC)C(=O)c1ccc2nc(-c3csc4ccccc34)n(CCCN3CCCCC3)c2n1 [Cpd 5, 2-(benzo[b]thiophen-3-yl)-N,N-dibutyl-3-(3-(piperidin-1-yl)propyl)-3H-imidazo[4,5-b]pyridine-5-carboxamide] | 0.1 to 1 µM
COc1ccc(Nc2nc3ccc(-c4cc5ccccc5n4C(=O)OC(C)(C)C)nc3n2CCCN2CCCCC2)cc1 [Cpd 6, tert-butyl 2-(2-((4-methoxyphenyl)amino)-3-(3-(piperidin-1-yl)propyl)-3H-imidazo[4,5-b]pyridin-5-yl)-1H-indole-1-carboxylate] | 1 to 15 µM
CCN(CCOC)C(=O)c1ccc2nc(Nc3ccc(OC)cc3)n(CCCN3CCCCC3)c2n1 [Cpd 7] | 1 to 15 µM
CCCCN(CCCC)C(=O)c1ccc2nc(Nc3ccccc3)n(CCCN3CCCCC3)c2n1 [Cpd 8] | < 0.1 µM
CCCCN(CCCC)C(=O)c1ccc2nc(Nc3ccccc3Br)n(CCCN3CCCCC3)c2n1 [Cpd 11] | 1 to 15 µM
COc1ccc(Nc2nc3ccc(C(=O)N(CC(C)C)CC(C)C)nc3n2CCCN2CCCCC2)cc1 [Cpd 12] | 0.1 to 1 µM
CCCCCN(CCCCC)C(=O)c1ccc2nc(Nc3ccc(OC)cc3)n(CCCN3CCCCC3)c2n1 [Cpd 14] | < 0.1 µM
COc1ccc(Nc2nc3ccc(C(=O)N(CCC(C)C)CCC(C)C)nc3n2CCCN2CCCCC2)cc1 [Cpd 16] | < 0.1 µM
COCCN(CCOC)C(=O)c1ccc2nc(Nc3ccc(OC)cc3)n(CCCN3CCCCC3)c2n1 [Cpd 17] | 1 to 15 µM
CCCCN(CCCC)C(=O)c1ccc2nc(Nc3ccc(OC)cc3)n(CCCN3CCCCC3C)c2n1 (stereo not shown) [Cpd 18] | < 0.1 µM
COc1ccc(Nc2nc3ccc(C(=O)N4CC5CCC(CC5)C4)nc3n2CCCN2CCCCC2)cc1 [Cpd 19] | 1 to 15 µM
CCCCN(CC#N)C(=O)c1ccc2nc(Nc3ccc(OC)cc3)n(CCCN3CCCCC3)c2n1 [Cpd 20] | 1 to 15 µM
CCCCN(CCC)C(=O)c1ccc2nc(Nc3ccc(OC)cc3)n(CCCN3CCCCC3)c2n1 [Cpd 24] | 0.1 to 1 µM
CCCCN(CCCC)C(=O)c1cc2c(cn1)nc(Nc1ccc(OC)cc1)n2CCCN1CCCCC1 [Cpd 31] | 0.1 to 1 µM
CCCCN(CCCC)C(=O)c1ccc2nc(NC(C)C)n(CCCN3CCCCC3)c2n1 [Cpd 34] | 1 to 15 µM
CCCCN(CCCC)C(=O)c1ccc2nc(Nc3cccnc3)n(CCCN3CCCCC3)c2n1 [Cpd 35] | < 0.1 µM
CCCCN(CCCC)C(=O)c1ccc2nc(N)n(CCCN3CCCCC3)c2n1 [Cpd 40] | 1 to 15 µM
C=C(C)CNc1nc2ccc(C(=O)N(CCCC)CCCC)nc2n1CCCN1CCCCC1 [Cpd 41] | 1 to 15 µM
CCCCN(CCCC)C(=O)c1ccc2nc(Nc3ccc(C)cc3)n(CCCN3CCCCC3)c2n1 [Cpd 46] | < 0.1 µM
CCCCN(CCCC)C(=O)c1nc(O)c2nc(-c3ccc(OC)cc3)n(CCCN3CCCCC3)c2n1 [Cpd 47] | 0.1 to 1 µM
CCCCN(CCCC)C(=O)c1cc2c(cn1)nc(Nc1ccc(C)cc1)n2CCCN1CCCCC1 [Cpd 53] | 0.1 to 1 µM
COc1ccc(-c2nc3cnc(C(=O)N(CCC(C)C)CCC(C)C)nc3n2CCCN2CCCCC2)cc1 [Cpd 54] | 0.1 to 1 µM
CCCCN(CCCC)C(=O)c1ccc2nc(Nc3ccc(C(=O)N4CCCCC4)cc3)n(CCCN3CCCCC3)c2n1 [Cpd 57] | 0.1 to 1 µM

Results, then the compound that gave them:

IC50 | SMILES
< 0.1 µM | CCCCN(CCCC)C(=O)c1ccc2nc(Nc3ccc(OC)cc3)n(CCCN3CCCCC3)c2n1 [Cpd 1]
1 to 15 µM | CCCCN(CCCC)C(=O)c1ccc2nc(C)n(CCCN3CCCCC3)c2n1 [Cpd 3, N,N-dibutyl-2-methyl-3-(3-(piperidin-1-yl)propyl)-3H-imidazo[4,5-b]pyridine-5-carboxamide]
1 to 15 µM | CCCCN(CCCC)C(=O)c1ccc2nc(NC(=O)c3ccccc3)n(CCCN3CCCCC3)c2n1 [Cpd 9]
0.1 to 1 µM | CCCCN(CCCC)C(=O)c1ccc2nc(NCc3ccccc3)n(CCCN3CCCCC3)c2n1 [Cpd 10]
0.1 to 1 µM | CCCN(CCC)C(=O)c1ccc2nc(Nc3ccc(OC)cc3)n(CCCN3CCCCC3)c2n1 [Cpd 13]
0.1 to 1 µM | CCC(C)N(C(=O)c1ccc2nc(Nc3ccc(OC)cc3)n(CCCN3CCCCC3)c2n1)C(C)CC (stereo not shown) [Cpd 15]
1 to 15 µM | COc1ccc(Nc2nc3ccc(C(=O)N4CCCCCC4)nc3n2CCCN2CCCCC2)cc1 [Cpd 21]
1 to 15 µM | CCC1CCC(C)N(C(=O)c2ccc3nc(Nc4ccc(OC)cc4)n(CCCN4CCCCC4)c3n2)C1 (stereo not shown) [Cpd 22]
1 to 15 µM | COc1ccc(Nc2nc3ccc(C(=O)N4CCCC5CCCCC54)nc3n2CCCN2CCCCC2)cc1 (stereo not shown) [Cpd 23]
0.1 to 1 µM | CCCN(C(=O)c1ccc2nc(Nc3ccc(OC)cc3)n(CCCN3CCCCC3)c2n1)C(C)CC (stereo not shown) [Cpd 25]
1 to 15 µM | CCCCN(CCCC)C(=O)c1ccc2nc(Nc3ccc(OC)cc3)n(C3CCN(Cc4ccccc4)CC3)c2n1 [Cpd 26]
1 to 15 µM | COc1ccc(Nc2nc3ccc(C(=O)N(CCC(C)C)CCC(C)C)nc3n2C2CCN(Cc3ccccc3)CC2)cc1 [Cpd 27]
1 to 15 µM | CCCCN(CCCC)Cc1ccc2nc(Nc3ccc(OC)cc3)n(CCCN3CCCCC3C)c2n1 (stereo not shown) [Cpd 28]
1 to 15 µM | CCCCN(CCCC)C(=O)c1ccc2nc(Nc3ccc(OC)cc3)n(CC(C)(C)CN(C)C)c2n1 [Cpd 29]
< 0.1 µM | COc1ccc(Nc2nc3ccc(C(=O)N(CCC4CC4)CCC4CC4)nc3n2CCCN2CCCCC2)cc1 [Cpd 30]
< 0.1 µM | CCCCN(CCCC)C(=O)c1ccc2nc(Nc3ccc(C(C)=O)cc3)n(CCCN3CCCCC3)c2n1 [Cpd 32]
0.1 to 1 µM | CCCCN(CCCC)C(=O)c1ccc2nc(Nc3ccc(CC)cc3)n(CCCN3CCCCC3)c2n1 [Cpd 33]

IC50 | SMILES
< 0.1 µM | CCCCCN(CCCCC)C(=O)c1cc2c(cn1)nc(Nc1ccc(OC)cc1)n2CCCN1CCCCC1 [Cpd 36]
< 0.1 µM | COc1ccc(Nc2nc3cnc(C(=O)N(CCC(C)C)CCC(C)C)cc3n2CCCN2CCCCC2)cc1 [Cpd 37]
1 to 15 µM | CCCCN(CCCC)C(=O)c1cnc2nc(Nc3ccc(OC)cc3)n(CCCN3CCCCC3)c2c1 [Cpd 38]
1 to 15 µM | CCCCN(CCCC)C(=O)c1ccc2nc(NC(=O)OCC)n(CCCN3CCCCC3)c2n1 [Cpd 39]
1 to 15 µM | CCCCN(CCCC)C(=O)c1ccc2nc(-c3cc(F)ccc3Br)n(CCCN3CCCCC3)c2n1 [Cpd 42]
1 to 15 µM | CCCCN(CCCC)C(=O)c1ccc2nc(-c3ccc(Br)cc3)n(CCCN3CCCCC3)c2n1 [Cpd 43]
0.1 to 1 µM | CCCCN(CCCC)C(=O)c1ccc2nc(-c3cc(Br)ccc3OC)n(CCCN3CCCCC3)c2n1 [Cpd 44]
0.1 to 1 µM | CCCCN(CCCC)C(=O)c1ccc2nc(Nc3cccc4ccccc34)n(CCCN3CCCCC3)c2n1 [Cpd 45]
< 0.1 µM | CCCCN(CCCC)C(=O)c1ccc2nc(Nc3ccc(C(=O)OC)cc3)n(CCCN3CCCCC3)c2n1 [Cpd 48]
0.1 to 1 µM | CCCCN(CCCC)C(=O)c1ccc2nc(NC3CCCCC3)n(CCCN3CCCCC3)c2n1 [Cpd 49]
0.1 to 1 µM | CCCCN(CCCC)C(=O)c1cnc2nc(Nc3ccc(OC)cc3)n(CCCN3CCCCC3)c2n1 [Cpd 50]
0.1 to 1 µM | CCCCN(CCCC)C(=O)c1cc2c(cn1)nc(Nc1ccccc1)n2CCCN1CCCCC1 [Cpd 51]
< 0.1 µM | CCCCN(CCCC)C(=O)c1cc2c(cn1)nc(NCc1ccccc1)n2CCCN1CCCCC1 [Cpd 52]
0.1 to 1 µM | CCCCN(CCCC)C(=O)c1ccc(Nc2nc3ccc(C(=O)N(CCCC)CCCC)nc3n2CCCN2CCCCC2)cc1 [Cpd 55]
0.1 to 1 µM | CCCCN(CCCC)C(=O)c1ccc2nc(Nc3ccc(C(=O)N(C)C)cc3)n(CCCN3CCCCC3)c2n1 [Cpd 56]
0.1 to 1 µM | CCCCN(CCCC)C(=O)c1ccc2nc(Nc3ccc(C(=O)N4CCN(C)CC4)cc3)n(CCCN3CCCCC3)c2n1 [Cpd 58]
